# Source: patent US6387900B1, “3(5)-ureido-pyrazole derivatives process for their preparation and their use as antitumor agents” (Pharmacia & Upjohn S.p.A., priority 1999, dated 2002)
row,melting point,Compound
1,177 to 179 °C,"O=C(NCc1ccc(Cl)cc1Cl)Nc1cc(C2CC2)n[nH]1 [Example 2, N-(3-cyclopropyl-1H-pyrazol-5-yl)-N′-(2,4-dichlorobenzyl)urea]"
2,162 to 164 °C,"O=C(Nc1ccccc1)Nc1cc(C2CC2)n[nH]1 [Example 1, N-(3-cyclopropyl-1H-pyrazol-5-yl)-N′-phenylurea]"
